# ChEMBL document CHEMBL3885861, “Open TG-GATES”
# Species on record: Rattus norvegicus
# Experiment: Open TG-GATES - Regimen: Daily Repeat
# Format: toxicity, organism-based, Sprague-Dawley
# Parameters: regimen Daily Repeat, gender Male, age 6 weeks
# Conditions: in vivo, po, 1000 mg/kg, route gavage, dose level High; for APTT / Bas / Eos / Fbg / Hb / Ht / Lym / MCH / MCHC / MCV / Mono / Neu / PT / Plat / RBC / Ret / WBC: tissue Blood; for KIDNEY_L / KIDNEY_R / KIDNEY_TOTAL: tissue Kidney; for LIVER: tissue Liver; for A/G / ALP / ALT / AST / BUN / CRE / Ca / Cl / DBIL / GLC / IP / K / LDH / Na / PL / RALB / TBIL / TC / TG / TP / gamma-GTP: tissue Plasma
smiles,measurement,setting,value
CCN1CCCC1CNC(=O)c1cc(S(N)(=O)=O)ccc1OC (configuration not stated) [SULPIRIDE],TERMINAL_BW,"72 h, time 3 day",230.5 g
same,APTT,"72 h, time 3 day",16.8 s
same,Bas,"72 h, time 3 day",0%
same,Eos,"72 h, time 3 day",1.4%
same,Fbg,"72 h, time 3 day",274.2 mg/dL
same,Hb,"72 h, time 3 day",14.1 g/dL
same,Ht,"72 h, time 3 day",42.6%
same,Lym,"72 h, time 3 day",74.8%
same,MCH,"72 h, time 3 day",20.7 pg
same,MCHC,"72 h, time 3 day",33.1%
same,MCV,"72 h, time 3 day",62.5 fL
same,Mono,"72 h, time 3 day",2.8%
same,Neu,"72 h, time 3 day",20.6%
same,PT,"72 h, time 3 day",13.2 s
same,Plat,"72 h, time 3 day",128.6 x10_4/uL
same,RBC,"72 h, time 3 day",682.6 x10_4/ul
same,Ret,"72 h, time 3 day",4.8%
same,WBC,"72 h, time 3 day",104.1 x10_2/uL
same,KIDNEY_L,"72 h, time 3 day",1 g
same,KIDNEY_R,"72 h, time 3 day",1 g
same,KIDNEY_TOTAL,"72 h, time 3 day",2 g
same,LIVER,"72 h, time 3 day",11.1 g
same,A/G,"72 h, time 3 day",0.8
same,ALP,"72 h, time 3 day",1652 IU/L
same,ALT,"72 h, time 3 day",49.2 IU/L
same,AST,"72 h, time 3 day",62.4 IU/L
same,BUN,"72 h, time 3 day",16.4 mg/dL
same,CRE,"72 h, time 3 day",0.2 mg/dL
same,Ca,"72 h, time 3 day",11.3 mg/dL
same,Cl,"72 h, time 3 day",103.4 meq/L
same,DBIL,"72 h, time 3 day",0.01 mg/dL
same,GLC,"72 h, time 3 day",174.6 mg/dL
same,IP,"72 h, time 3 day",8.3 mg/dL
same,K,"72 h, time 3 day",4.5 meq/L
same,LDH,"72 h, time 3 day",73.8 IU/L
same,Na,"72 h, time 3 day",140 meq/L
same,PL,"72 h, time 3 day",161 mg/dL
same,RALB,"72 h, time 3 day",2.7 g/dL
same,TBIL,"72 h, time 3 day",0.056 mg/dL
same,TC,"72 h, time 3 day",82.2 mg/dL
same,TG,"72 h, time 3 day",112 mg/dL
same,TP,"72 h, time 3 day",5.7 g/dL
same,gamma-GTP,"72 h, time 3 day",1 IU/L
same,TERMINAL_BW,"[…], time 7 day",262.7 g
same,TERMINAL_BW,"[…], time 14 day",307.6 g
same,TERMINAL_BW,"[…], time 28 day",370.8 g
same,APTT,"[…], time 7 day",17.8 s
same,Bas,"[…], time 7 day",0%
same,Eos,"[…], time 7 day",1.2%
same,Fbg,"[…], time 7 day",288 mg/dL
same,Hb,"[…], time 7 day",14 g/dL
same,Ht,"[…], time 7 day",42.2%
same,Lym,"[…], time 7 day",76.6%
same,MCH,"[…], time 7 day",20.8 pg
same,MCHC,"[…], time 7 day",33.3%
same,MCV,"[…], time 7 day",62.6 fL
same,Mono,"[…], time 7 day",3.2%
same,Neu,"[…], time 7 day",18.6%
same,PT,"[…], time 7 day",13.3 s
same,Plat,"[…], time 7 day",125.3 x10_4/uL
same,RBC,"[…], time 7 day",673.8 x10_4/ul
same,Ret,"[…], time 7 day",4.7%
same,WBC,"[…], time 7 day",87.1 x10_2/uL
same,APTT,"[…], time 14 day",16.8 s
same,Bas,"[…], time 14 day",0.2%
same,Eos,"[…], time 14 day",1%
same,Fbg,"[…], time 14 day",271 mg/dL
same,Hb,"[…], time 14 day",14.9 g/dL
same,Ht,"[…], time 14 day",44.3%
same,Lym,"[…], time 14 day",72.8%
same,MCH,"[…], time 14 day",20.1 pg
same,MCHC,"[…], time 14 day",33.6%
same,MCV,"[…], time 14 day",59.8 fL
same,Mono,"[…], time 14 day",2.2%
same,Neu,"[…], time 14 day",23%
same,PT,"[…], time 14 day",13.2 s
same,Plat,"[…], time 14 day",114.6 x10_4/uL
same,RBC,"[…], time 14 day",742 x10_4/ul
same,Ret,"[…], time 14 day",3.8%
same,WBC,"[…], time 14 day",103.9 x10_2/uL
same,APTT,"[…], time 28 day",17.8 s
same,Bas,"[…], time 28 day",0%
same,Eos,"[…], time 28 day",1.6%
same,Fbg,"[…], time 28 day",278.4 mg/dL
same,Hb,"[…], time 28 day",15.8 g/dL
same,Ht,"[…], time 28 day",45.5%
same,Lym,"[…], time 28 day",80%
same,MCH,"[…], time 28 day",19.3 pg
same,MCHC,"[…], time 28 day",34.7%
same,MCV,"[…], time 28 day",55.5 fL
same,Mono,"[…], time 28 day",2%
same,Neu,"[…], time 28 day",15%
same,PT,"[…], time 28 day",13.3 s
same,Plat,"[…], time 28 day",111.2 x10_4/uL
same,RBC,"[…], time 28 day",818.8 x10_4/ul
same,Ret,"[…], time 28 day",2.5%
same,WBC,"[…], time 28 day",133.5 x10_2/uL
same,KIDNEY_L,"[…], time 7 day",1.1 g
same,KIDNEY_R,"[…], time 7 day",1.2 g
same,KIDNEY_TOTAL,"[…], time 7 day",2.3 g
same,KIDNEY_L,"[…], time 14 day",1.2 g
same,KIDNEY_R,"[…], time 14 day",1.2 g
same,KIDNEY_TOTAL,"[…], time 14 day",2.3 g
same,KIDNEY_L,"[…], time 28 day",1.2 g
same,KIDNEY_R,"[…], time 28 day",1.3 g
same,KIDNEY_TOTAL,"[…], time 28 day",2.5 g
same,LIVER,"[…], time 7 day",11.9 g
same,LIVER,"[…], time 14 day",12.6 g
same,LIVER,"[…], time 28 day",13.4 g
same,A/G,"[…], time 7 day",0.9
same,ALP,"[…], time 7 day",1461.2 IU/L
same,ALT,"[…], time 7 day",55 IU/L
same,AST,"[…], time 7 day",74.2 IU/L
same,BUN,"[…], time 7 day",16.4 mg/dL
same,CRE,"[…], time 7 day",0.2 mg/dL
same,Ca,"[…], time 7 day",11 mg/dL
same,Cl,"[…], time 7 day",103.2 meq/L
same,DBIL,"[…], time 7 day",0.006 mg/dL
same,GLC,"[…], time 7 day",171.6 mg/dL
same,IP,"[…], time 7 day",8 mg/dL
same,K,"[…], time 7 day",4.3 meq/L
same,LDH,"[…], time 7 day",62 IU/L
same,Na,"[…], time 7 day",141 meq/L
same,PL,"[…], time 7 day",146 mg/dL
same,RALB,"[…], time 7 day",2.7 g/dL
same,TBIL,"[…], time 7 day",0.05 mg/dL
same,TC,"[…], time 7 day",72.6 mg/dL
same,TG,"[…], time 7 day",94 mg/dL
same,TP,"[…], time 7 day",5.7 g/dL
same,gamma-GTP,"[…], time 7 day",1 IU/L
same,A/G,"[…], time 14 day",0.9
same,ALP,"[…], time 14 day",1425.6 IU/L
same,ALT,"[…], time 14 day",41.8 IU/L
same,AST,"[…], time 14 day",68.2 IU/L
same,BUN,"[…], time 14 day",16.8 mg/dL
same,CRE,"[…], time 14 day",0.2 mg/dL
same,Ca,"[…], time 14 day",11 mg/dL
same,Cl,"[…], time 14 day",102.6 meq/L
same,DBIL,"[…], time 14 day",0.008 mg/dL
same,GLC,"[…], time 14 day",181 mg/dL
same,IP,"[…], time 14 day",7.9 mg/dL
same,K,"[…], time 14 day",3.9 meq/L
same,LDH,"[…], time 14 day",54 IU/L
same,Na,"[…], time 14 day",140.6 meq/L
same,PL,"[…], time 14 day",148.4 mg/dL
same,RALB,"[…], time 14 day",2.7 g/dL
same,TBIL,"[…], time 14 day",0.056 mg/dL
same,TC,"[…], time 14 day",80.8 mg/dL
same,TG,"[…], time 14 day",83.4 mg/dL
same,TP,"[…], time 14 day",5.9 g/dL
same,gamma-GTP,"[…], time 14 day",1 IU/L
same,A/G,"[…], time 28 day",0.8
same,ALP,"[…], time 28 day",1094.8 IU/L
same,ALT,"[…], time 28 day",42.6 IU/L
same,AST,"[…], time 28 day",70.4 IU/L
same,BUN,"[…], time 28 day",18 mg/dL
same,CRE,"[…], time 28 day",0.3 mg/dL
same,Ca,"[…], time 28 day",10.6 mg/dL
same,Cl,"[…], time 28 day",103 meq/L
same,DBIL,"[…], time 28 day",0.012 mg/dL
same,GLC,"[…], time 28 day",169 mg/dL
same,IP,"[…], time 28 day",7.2 mg/dL
same,K,"[…], time 28 day",3.9 meq/L
same,LDH,"[…], time 28 day",55.6 IU/L
same,Na,"[…], time 28 day",141.8 meq/L
same,PL,"[…], time 28 day",136.2 mg/dL
same,RALB,"[…], time 28 day",2.8 g/dL
same,TBIL,"[…], time 28 day",0.062 mg/dL
same,TC,"[…], time 28 day",66.2 mg/dL
same,TG,"[…], time 28 day",87.2 mg/dL
same,TP,"[…], time 28 day",6.3 g/dL
same,gamma-GTP,"[…], time 28 day",1 IU/L
